Experimental data as given in paper PMC11249637, “Interaction of the Atypical Tetracyclines Chelocardin and Amidochelocardin with Renal Drug Transporters” (ACS Pharmacology & Translational Science, 2024).

How the values were obtained:
[1] = set-up: method as in PMID 38047701; conditions: PK samples; cited from earlier work
[2] = target: T1, hMRP2 (Homo sapiens, UniProt Q92887); assay: Two-point inhibition of hMRP2-mediated efflux of CDCF in transfected HEK293 cells; format: in vitro ADME; conditions: 1 and 10 μM; CDCF-DA 5 μM, efflux 10 min
T1 construct: expressed in transfected cells; host or cells: HEK293
T1 sequence (Q92887 whole entry): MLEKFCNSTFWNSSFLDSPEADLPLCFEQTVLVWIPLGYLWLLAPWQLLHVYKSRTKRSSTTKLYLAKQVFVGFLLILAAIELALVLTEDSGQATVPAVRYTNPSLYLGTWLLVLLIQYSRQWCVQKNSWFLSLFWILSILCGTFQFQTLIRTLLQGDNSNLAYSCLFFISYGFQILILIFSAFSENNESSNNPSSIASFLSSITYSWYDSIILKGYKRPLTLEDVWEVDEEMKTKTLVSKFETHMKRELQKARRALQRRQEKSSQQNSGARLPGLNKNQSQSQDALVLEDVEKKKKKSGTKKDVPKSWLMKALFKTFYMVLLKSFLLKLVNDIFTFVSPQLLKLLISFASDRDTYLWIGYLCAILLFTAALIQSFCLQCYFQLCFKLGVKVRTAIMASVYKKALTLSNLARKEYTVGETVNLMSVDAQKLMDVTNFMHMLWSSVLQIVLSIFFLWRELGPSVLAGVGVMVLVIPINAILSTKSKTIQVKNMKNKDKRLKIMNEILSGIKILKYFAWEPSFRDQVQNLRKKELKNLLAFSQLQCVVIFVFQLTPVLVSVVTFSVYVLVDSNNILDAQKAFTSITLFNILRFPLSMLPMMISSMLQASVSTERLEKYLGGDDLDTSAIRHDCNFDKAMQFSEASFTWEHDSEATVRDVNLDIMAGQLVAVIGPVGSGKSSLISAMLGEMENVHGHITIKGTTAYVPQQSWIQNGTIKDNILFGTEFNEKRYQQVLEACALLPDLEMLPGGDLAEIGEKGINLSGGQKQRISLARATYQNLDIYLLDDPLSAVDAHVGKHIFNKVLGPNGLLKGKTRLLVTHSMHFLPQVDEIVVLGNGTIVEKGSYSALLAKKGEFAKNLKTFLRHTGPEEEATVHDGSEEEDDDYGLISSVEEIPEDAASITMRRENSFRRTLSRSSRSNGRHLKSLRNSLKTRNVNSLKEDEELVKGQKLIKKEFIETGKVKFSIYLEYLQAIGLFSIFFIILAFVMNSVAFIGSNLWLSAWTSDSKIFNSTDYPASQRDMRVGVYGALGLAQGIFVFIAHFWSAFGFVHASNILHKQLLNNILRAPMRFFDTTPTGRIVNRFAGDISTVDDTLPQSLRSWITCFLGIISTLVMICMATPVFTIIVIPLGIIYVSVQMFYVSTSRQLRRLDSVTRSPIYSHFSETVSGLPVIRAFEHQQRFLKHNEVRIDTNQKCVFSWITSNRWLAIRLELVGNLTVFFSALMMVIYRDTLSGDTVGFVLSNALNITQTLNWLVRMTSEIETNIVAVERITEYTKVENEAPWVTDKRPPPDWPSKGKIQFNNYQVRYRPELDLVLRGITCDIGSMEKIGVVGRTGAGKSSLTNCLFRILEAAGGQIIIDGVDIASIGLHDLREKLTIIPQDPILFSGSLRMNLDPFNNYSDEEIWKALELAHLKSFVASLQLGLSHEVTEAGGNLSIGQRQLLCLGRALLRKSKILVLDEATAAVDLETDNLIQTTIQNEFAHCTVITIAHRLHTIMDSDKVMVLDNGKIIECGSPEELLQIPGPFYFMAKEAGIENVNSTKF
Description: Well-characterized mOct1-, mOct2-, mOat1-, mOat2-, mOat3-, mMate1-, hOAT1-, hOAT3-, hOAT4-, hMRP2-, mMdr1a- and mMdr1b-transfected HEK293 cells and the respective vector-transfected control HEK293 cells were used.[42],[51],[52] All HEK293 cells (transporter-transfected and vector-transfected) were cultured in DMEM (Sigma, high glucose, 10% FBS, 1% penicillin (10,000 Units/mL)/streptomycin (10 mg/mL)) at 37°C under 5% CO2 in humidified atmosphere. The cells were routinely checked for the absence of mycoplasma infection. For the preparation of HEK293 cell monolayers, 24-well plates were pretreated with a poly-D-lysine hydrobromide solution (0.1 mg/mL). Each well was coated with 0.5 mL of poly-D-lysine solution and incubated for at least 15 min. […]
After preloading, the incubation buffer was removed, cells were washed twice with cold HBSS incubation buffer, and for the efflux, 0.2 mL of incubation buffer was added to each well containing the nonlabeled CHD and CDCHD or reference inhibitor (Table S1) and incubated at 37 °C for designated time intervals. […] Samples were diluted with incubation buffer, and fluorescence was measured in a 96-well plate (Sarstedt, flat bottom) at an extinction of 490 nm and emission of 535 nm. […]
The inhibitory effect I (%) and the efflux ratio was calculated in the same way described for the uptake assays.

[3] = target: T2, mOat3 (Mus musculus, UniProt O88909); assay: Three-point uptake (substrate assessment) in mOat3-overexpressing HEK293 cells; format: in vitro ADME
T2 construct: expressed in transfected cells; host or cells: HEK293
T2 sequence (O88909 1-537): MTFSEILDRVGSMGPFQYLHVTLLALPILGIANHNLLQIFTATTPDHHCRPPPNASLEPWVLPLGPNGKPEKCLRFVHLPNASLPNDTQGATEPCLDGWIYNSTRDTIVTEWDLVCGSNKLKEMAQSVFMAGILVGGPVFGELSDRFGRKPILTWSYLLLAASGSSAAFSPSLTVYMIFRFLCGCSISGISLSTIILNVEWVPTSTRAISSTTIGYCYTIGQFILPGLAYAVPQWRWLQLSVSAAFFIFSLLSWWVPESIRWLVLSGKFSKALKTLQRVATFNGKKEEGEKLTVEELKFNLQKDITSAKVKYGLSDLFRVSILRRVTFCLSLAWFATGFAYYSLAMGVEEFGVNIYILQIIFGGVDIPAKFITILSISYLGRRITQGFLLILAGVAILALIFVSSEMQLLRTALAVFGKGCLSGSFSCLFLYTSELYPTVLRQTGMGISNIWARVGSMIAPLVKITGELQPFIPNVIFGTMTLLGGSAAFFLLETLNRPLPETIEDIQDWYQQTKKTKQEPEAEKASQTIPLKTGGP
Description: This is important to gain a better understanding of the underlying mechanisms of secretion into urine. Therefore, we assessed the amount of compound taken up by the vector and transporter cells at three different concentrations (1, 10, and 100 μM for mOat1 and mOct1; 0.1, 1, and 10 μM for mOat3) and at two different incubation periods (1 and 5 min for mOat1 and mOct1; 5 and 10 min for mOat3).
The incubation buffer contained CHD and CDCHD in a final concentration of 0.1, 1, and 10 μM. After 5 and 10 min, the incubation was terminated. In addition, the probe inhibitor probenecid (100 μM) was added in one concentration to 10 μM CHD and CDCHD, respectively, and after 5 and 10 min, the incubation was stopped. Inhibition of mOat3-mediated ^3H-ES (1 μM) uptake by 100 μM probenecid was performed as a control experiment. After 1 min, the incubation was terminated. All experiments were conducted in triplicate.
First, a calibration curve was prepared by spiking different concentrations of CHD and CDCHD into the cell matrix. Caffeine was used as an internal standard. In addition, quality control samples (QCs) were prepared for CHD and CDCHD in a cell matrix. The following extraction procedures were used: 300 μL of acetonitrile/water (1:1) is added to the cell pellet (sample or calibration/QC sample) for 15 min at 2000 rpm on an Eppendorf MixMate vortex mixer. 10 μL of this extracted sample is used for further analysis. 10 μL of the extracted cell sample is further extracted with 25 μL of a mixture of methanol/acetonitrile (2:1) containing 12.5 ng/mL caffeine as an internal standard (on ice) for 5 min at 2000 rpm on an Eppendorf MixMate vortex mixer. […] Samples were analyzed using an Agilent 1290 Infinity II HPLC system coupled to an AB Sciex QTrap6500plus mass spectrometer. […]
For statistical testing of differences in uptake ratio or for the inhibitory effect, an ordinary one-way ANOVA test was performed using GraphPad Prism 9.5.1 software. […] Michaelis–Menten kinetics were determined using the Michaelis–Menten algorithm of GraphPad Prism 9.5.1 software. […]

Structure (SMILES) | irreversible toxicity in histopathological analysis of kidneys and livers (in words) [1] | inhibitory effect on hMRP2 (in words) [2] | substrate of mOat3 (in words) [3] | Km ([3]; Michaelis–Menten fit, 0.1, 1 and 10 μM) [µM]
Cc1ccc2c(C)c3c(c(O)c2c1O)C(=O)[C@@]1(O)C(=O)C(C(N)=O)=C(O)[C@@H](N)[C@H]1C3 [CDCHD, amidochelocardin] | has not been observed | slight inhibitory effect | is not a substrate | 
CC(=O)C1=C(O)[C@@H](N)[C@H]2Cc3c(c(O)c4c(O)c(C)ccc4c3C)C(=O)[C@@]2(O)C1=O [CHD, chelocardin] | has not been observed | slight inhibitory effect | is a substrate | 6.1
